The text below walks through data of patent publication EP0685467A1, “NOVEL PYRIMIDINE DERIVATIVE AND MEDICINAL COMPOSITION” (NKK CORPORATION, priority 1993, dated 1995).

For one data set, the system named is rat aorta. As to the kind of experiment: Inhibitory activity of vasoconstriction: angiotensin II induced constriction of rat aorta rings (Magnus apparatus). The format is cell-based. The note with it: constriction induced by 3 x 10⁻⁸ angiotensin II. Here is the method: The applicability of the compound of the present invention was confirmed by the function to inhibit constriction of rat aorta induced by angiotensin II.
Stetharteries of Wistar male rats having body weights of 150 to 250 g (Japan Charles River Inc.) were excised. After the attached connective tissue was removed, the cavities of the veins were rubbed by yarn to remove the endothelial cells and prepare ring samples. The samples were suspended in a 5ml organ bath which was filled with Krebs-Henseleit solution (unit mM; NaCl = 118, KCl = 4.7, CaCl₂ = 2.55, MgSO₄ = 1.18, KH₂PO₄ = 1.18, NaHCO₃ = 24.88, glucose = 11.1) and held at 37°C and bubbled with 95% O₂-5% CO₂. After an initial tension of 1.5 g was applied and preincubation was carried out for 60 minutes, the compounds to be tested (3 x 10⁻⁸ or 1 x 10⁻⁸) were administered. After 15 minutes, 3 x 10⁻⁸ angiotensin II was accumulatively added and the reaction of constriction was measured. The rate of inhibition was evaluated by comparing the reaction of constriction, which had been previously measured, in the case of administration of 3 x 10⁻⁸ angiotensin II in the absence of the compounds to be tested.
The constriction of the samples was ionotropicaly measured using an isometric transducer (UL-10GR: Minebea) and amplifier (6M92: NEC SANEI) and recorded by a recticorder (RECTI-HORIZ-8K: NEC SANEI).

The next data set has as its system ICR male mice. As to the kind of experiment: Toxicity Example: intraperitoneal administration to mice. The format is in vivo. The note with it: intraperitoneally, 500 mg/kg, 4- to 5-week-old ICR male mice. Here is the method: The compounds of Examples 3, 19, 20, or 23 were intraperitoneally administered to 4- to 5-week-old ICR male mice in an amount of 500 mg/kg.

The subject of the next data set is ICR male and female mice. As to the kind of experiment: Toxicity Example: oral administration to mice. Type of data set: in vivo. The note with it: orally, 1000 mg/kg, 6-week-old ICR male and female mice. Here is the method: The compounds of Examples 15, 19, or 47 were orally administered to 6-week-old ICR male and female mice in an amount of 1000 mg/kg.

On to `CCCCc1nc(C)cc(=O)n1Cc1ccc(-c2ccccc2-c2nnn[nH]2)cc1` [Comparative compound A, 2-butyl-6-methyl-3-[2'-(1H-tetrazol-5-yl)biphenyl-4-yl]methylpyrimidin-4-one, reference compound], for which the results for the “Rate of inhibition (%)” value with rat aorta (compound 1 x 10⁻⁸ M) and with rat aorta (compound 3 x 10⁻⁸ M) were 8% and 37%, respectively.
For `CCCCc1nc(C)c(Cc2ccccc2)c(=O)n1Cc1ccc(-c2ccccc2-c2nnn[nH]2)cc1` [Comparative compound B, 5-benzyl-2-butyl-6-methyl-3-[2'-(1H-tetrazol-5-yl)biphenyl-4-yl]methylpyrimidin-4-one, reference compound], the “Rate of inhibition (%)” value in the data set on rat aorta (compound 1 x 10⁻⁸ M) was found to be 5%; with rat aorta (compound 3 x 10⁻⁸ M) it was 32%.
Turning to `CCCc1nc(C)c(Cc2ccc(CO)cc2)c(=O)n1Cc1ccc(-c2ccccc2-c2nnn[nH]2)cc1` [Example 3, 5-(4-hydroxymethylbenzyl)-6-methyl-2-propyl-3-[2'-(1H-tetrazol-5-yl)biphenyl-4-yl]methylpyrimidin-4-one], the “Rate of inhibition (%)” value amounted to 78% in the data set on rat aorta (compound 1 x 10⁻⁸ M) and 98% in the data set on rat aorta (compound 3 x 10⁻⁸ M). The deaths entry with ICR male mice is “No deaths were observed”.
In the case of `CCCc1nc(C)c(Cc2ccc(COC)cc2)c(=O)n1Cc1ccc(-c2ccccc2-c2nnn[nH]2)cc1` [Example 4, 5-(4-methoxymethylbenzyl)-6-methyl-2-propyl-3-[2'-(1H-tetrazol-5-yl)biphenyl-4-yl]methylpyrimidin-4-one], the “Rate of inhibition (%)” value is on record as 36% with rat aorta (compound 1 x 10⁻⁸ M) and 94% in the data set on rat aorta (compound 3 x 10⁻⁸ M).
As to `CCc1nc(C)c(Cc2cccc(CO)c2)c(OCc2ccc(-c3ccccc3-c3nnn[nH]3)cc2)n1` [Example 15, 2-ethyl-5-(3-hydroxymethylbenzyl)-6-methyl-4-[2'-(1H-tetrazol-5-yl)biphenyl-4-yl]methoxypyrimidine], the deaths result in the data set with ICR male and female mice was “No deaths were observed”.
Take `CCCc1nc(C)c(Cc2cccc(CO)c2)c(=O)n1Cc1ccc(-c2ccccc2-c2nnn[nH]2)cc1` [Example 19, 5-(3-hydroxymethylbenzyl)-6-methyl-2-propyl-3-[2'-(1H-tetrazol-5-yl)biphenyl-4-yl]methylpyrimidin-4-one]: the “Rate of inhibition (%)” value with rat aorta (compound 1 x 10⁻⁸ M) and with rat aorta (compound 3 x 10⁻⁸ M) was 100% in each case. Besides, the deaths entry in the data set with ICR male and female mice was “No deaths were observed”; with ICR male mice, “No deaths were observed”.
On to `CCCc1nc(C)c(Cc2cccc(COC)c2)c(=O)n1Cc1ccc(-c2ccccc2-c2nnn[nH]2)cc1` [Example 20, 5-(3-methoxymethylbenzyl)-6-methyl-2-propyl-3-[2'-(1H-tetrazol-5-yl)biphenyl-4-yl]methylpyrimidin-4-one], for which the “Rate of inhibition (%)” value in the data set on rat aorta (compound 1 x 10⁻⁸ M) and with rat aorta (compound 3 x 10⁻⁸ M) was 100% throughout. For the same molecule, the deaths result with ICR male mice is “No deaths were observed”.
For the molecule `CCCCc1nc(C)c(Cc2cccc(CO)c2)c(=O)n1Cc1ccc(-c2ccccc2-c2nnn[nH]2)cc1` [Example 23, 2-butyl-5-(3-hydroxymethylbenzyl)-6-methyl-3-[2'-(1H-tetrazol-5-yl)biphenyl-4-yl]methylpyrimidin-4-one], the “Rate of inhibition (%)” value with rat aorta (compound 1 x 10⁻⁸ M) came to 95%; in the data set on rat aorta (compound 3 x 10⁻⁸ M), 100%. The deaths entry in the data set on ICR male mice was “No deaths were observed”.
As to `CCc1nc(C)nc(OCc2ccc(-c3ccccc3-c3nnn[nH]3)cc2)c1Cc1cccc(CO)c1` [Example 47, 6-ethyl-5-(3-hydroxymethylbenzyl)-2-methyl-4-[2'-(1H-tetrazol-5-yl)biphenyl-4-yl]methoxypyrimidine], the deaths result in the data set on ICR male and female mice is “No deaths were observed”.
